{"source": "patent US10704076B2", "about": "“Multi-tiered high through-put screen for compounds effective against bacterial biofilm and compounds effective for inhibiting and eradicating bacterial biofilm” (University of Cincinnati, priority 2013, dated 2020)", "key": {"A. baumannii": {"test_system": "A. baumannii", "assay": "HTS total bacterial growth assay (optical density OD560)", "format": "cell-based, Acinetobacter baumannii", "conditions": "for AC50: Acinetobacter baumannii, 10 point dose-response 0.1-50 μM, NS* = no sigmoid curve observed, read-out: Total Bacteria Growth AC50", "source_text": "(§1) Each HTS tier consisted of: (i) primary screening, (ii) confirmation screening and (iii) dose-response curve screening. Each tier of HTS included three distinct biological process assays. The first assay was an optical density measurement of bacteria growth in the presence of each compound reported as a total bacteria growth. In the second assay, resazurin solution was used as an indicator of metabolic activity to measure the live bacteria in the biofilms, reported as live biofilm. The final assay was crystal violet staining, which indicated the amount of biofilm formation and the effect of each compound on this process, reported as total biofilm formation.\n(§2) Briefly, stationary phase bacteria grown in L-broth were diluted 1:200 into fresh L-broth and 50 μM of each test compound. After 20-24 hours, the optical density (OD560) of each suspension was measured using Zeiss Plate::Vision with a 560 BP filter (560 nm, 2.5% light intensity, 1 mm focus to bottom of plate, and exposure time of 100 ms). To measure bacterial viability in the biofilm, 50 μl of a 5 mg/ml resazurin solution in L-broth was added to each well after washing 3 times with 50 μl of PBS. The plates were then incubated at 37° C. for 30 or 180 min for A. baumannii and P. aeruginosa biofilms, respectively. Fluorescence was measured using Zeiss Plate::Vision at excitation and emission wavelengths of 535 and 580 nm, 100 ms exposure time, 2.5% intensity and a 2 mm focus to the bottom of the biofilms. To assess biofilm formation, plates were washed 3 times with PBS and then 50 μl of 0.01% of crystal violet was added to each well to assess bacterial biofilm formation as described in a similar borosilicate tube assay by O'Toole and Kolter. After incubation at room temperature for 30 min and removal of the crystal violet solution by washing with PBS, 95% ethanol was added to solubilize the crystal violet followed by incubation for 20 min at room temperature. Finally, the optical density of each plate was determined using measured by Zeiss Plate::Vision using the same settings used to measure total bacterial growth. These 3 steps were used in each of the three tiers for the HTS process: (i) single point primary screening at 10 μM, (ii) triplicate confirmation of hits from (i) at 10 μM and (iii) determination of AC50 values in 10 point dose-response at a concentration range of 0.1-50 μM) in hits from (ii). The AC50 represents the concentration of compound that inhibits 50% of bacterial growth, bacterial viability, or biofilm formation. Genedata Screener® Assay Analyzer Software (Ver. 9.0.0 Standard) was used to analyze data from all assay tiers. Compounds with an AC50 of less than 20 μM in one of the biological assays from the dose response screen were subject to additional investigation."}, "A. baumannii biofilm": {"test_system": "A. baumannii biofilm", "assay": "HTS live biofilm assay (resazurin metabolic activity)", "format": "cell-based, Acinetobacter baumannii", "conditions": "for AC50: Acinetobacter baumannii, 10 point dose-response 0.1-50 μM", "source_text": "as §1, §2"}, "[1]": {"test_system": "P. aeruginosa established biofilm", "assay": "CLSM, effect of compound on the pre-existing biofilm", "format": "cell-based, Pseudomonas aeruginosa", "conditions": "for Effect of compound on the pre-existing biofilm: Dispersion: ** = Bacterial morphology changed", "protocol": "Broad spectrum agents (effective against all three bacterial species) and single agent compounds identified as HTS hits were investigated with CLSM confirmation of inhibition of biofilm formation (culture of bacteria with compounds) or killing of bacteria residing within an established biofilm (compound addition after culturing biofilm). To evaluate inhibition of P. aeruginosa biofilms, bacteria were sub-cultured into 10% L-broth and grown at 37° C. until the OD600 reached 0.25. The bacteria were further diluted 1:100 into a modified 0.5×M63 minimum media (50 mM KH2PO4, 7.5 mM (NH4)2SO4, 9 μM FeSO4, 0.5% casamino acids, 0.2% glucose, and 1 mM MgSO4). A. baumannii biofilms were also grown in 10% L-broth until the OD600 reached 0.05 but diluted 1:10 into 5% L-broth media. S. epidermidis biofilm cultures were grown. Briefly, the bacteria were grown in TSB until the OD600 reached 0.75, and a 1:100 dilution of the bacteria was sub-cultured into phosphate buffered saline (PBS). All of the biofilm bacterial cultures were grown in 96-well plate chambers (MatTek Corp., Ashland, Mass.) in the presence of 10 μM of each compound or DMSO as a control and incubated for 18 hrs at 37° C. To investigate the ability of compounds to kill bacteria within pre-existing biofilms, biofilms were grown under the same conditions, but without test compound. These biofilms were washed once with PBS and incubated an additional 24 hr at 37° C. in PBS containing 300 μM of each compound. All biofilm cultures were then washed twice with 100 μL of PBS and stained using the LIVE/DEAD® BacLight™ Bacterial Viability Kit (Invitrogen). Finally, biofilm images were obtained using a Zeiss LSM510 META Confocal Microscope (Carl Zeiss, Inc., Germany). A 488 nm laser was used in conjunction with a Plan-Apochromat 100×/1.4 Oil DIC objective. Z-stacks were 8 bit and measured 127.3 μm×127.3 μm×16.0 μm in size. The filters used were 505-530 and 620-680 IR, as the excitation and emission wavelengths for red fluorescence are 490 nm and 635 nm, respectively, and 480 nm and 500 nm for green fluorescence. Three dimensional images were generated using the “Projection” ability on LSM Image Browser software (v.1.4.0.121) or Zeiss LSM image browser software version 3.5 (Carl Zeiss, Inc., Germany), and Live/Dead calculations were conducted based upon these images using MacBiophotonics ImageJ following the guidelines in the cell counting guide by C. Labno {Rasband, 1997-2011 #25; Labno, #2} at the University of Chicago Integrated Light Microscopy Core. The thickness of the biofilm was calculated using Comstat software. A hit was defined as a >50% dead to live ratio.\nThe CLSM experiment was performed in one or two or all bacteria used in this study depending on its activity. For the validation of HTS hits, 10 μM of compound was added to each bacterial suspension and the resulting biofilm stained with LIVE/DEAD® BacLight™ Bacterial Viability Kit. The images were analyzed to determine the live and dead ratios of biofilm bacteria, the thickness of biofilms, and structural attributes of biofilms."}, "[2]": {"test_system": "P. aeruginosa established biofilm", "assay": "CLSM, effect of compound on the pre-existing biofilm", "format": "cell-based, Pseudomonas aeruginosa"}}, "note": "“Also recorded” adds a separate entry of the source."}
{"smiles": "Cn1sc(Cl)c(C#N)c1=O", "note": "[Compound 3, 5-chloro-2-methyl-3-oxo-1,2-thiazole-4-carbonitrile]", "values": [{"measurement": "AC50", "setting": "A. baumannii", "value": 2.93, "unit": "µM"}, {"measurement": "AC50", "setting": "A. baumannii biofilm", "value": 4.04, "unit": "µM"}, {"measurement": "killing of established P. aeruginosa biofilm (CLSM, in words)", "setting": "[1]; 300 μM, 24 hr", "value": "demonstrated killing; also recorded: effective at killing"}, {"measurement": "Effect of compound on the pre-existing biofilm: Killing", "setting": "[1]; CLSM, 300 μM compound, 24 hr, Y / —", "value": "Y (A hit was defined as a >50% dead to live ratio)"}, {"measurement": "effective on established P. aeruginosa biofilm at 100 μM (CLSM, in words)", "setting": "[2]", "value": "effective at killing"}]}
{"smiles": "NC(=S)N1CCN(c2cc3c(cc2F)c(=O)c(C(=O)O)cn3C2CC2)CC1", "note": "[Compound 7, 7-(4-carbamothioylpiperazin-1-yl)-1-cyclopropyl-6-fluoro-4-oxoquinoline-3-carboxylic acid]", "values": [{"measurement": "AC50", "setting": "A. baumannii", "value": 12.1, "unit": "µM"}, {"measurement": "AC50", "setting": "A. baumannii biofilm", "value": 8.45, "unit": "µM"}, {"measurement": "Effect of compound on the pre-existing biofilm: Dispersion", "setting": "[1]; CLSM, 300 μM compound, 24 hr", "value": "caused dispersion and Y**"}, {"measurement": "bacterial morphology in established P. aeruginosa biofilm (CLSM)", "setting": "[1]", "value": "altered the morphology"}, {"measurement": "effective on established P. aeruginosa biofilm at 100 μM (CLSM, in words)", "setting": "[2]", "value": "effective"}]}
{"smiles": "O=C(O)c1cn(C2CC2)c2c(F)c(N3CC(O)C3)c(F)cc2c1=O", "note": "[Compound 8, 1-cyclopropyl-6,8-difluoro-7-(3-hydroxyazetidin-1-yl)-4-oxoquinoline-3-carboxylic acid]", "values": [{"measurement": "AC50", "setting": "A. baumannii", "value": 3.44, "unit": "µM"}, {"measurement": "HTS assay results: Total Bacteria growth", "setting": "A. baumannii; Y / —", "value": "—* (AC50 higher than 20 μM)"}, {"measurement": "AC50", "setting": "A. baumannii biofilm", "value": 2.33, "unit": "µM"}, {"measurement": "HTS assay results: Live Bacteria", "setting": "A. baumannii biofilm; Y / —", "value": "—* (AC50 higher than 20 μM)"}, {"measurement": "biofilm architecture / thickness of established P. aeruginosa biofilm (CLSM)", "setting": "[1]; 300 μM", "value": "thinner biofilm architecture"}, {"measurement": "Effect of compound on the pre-existing biofilm: Dispersion", "setting": "[1]; CLSM, 300 μM compound, 24 hr", "value": "caused dispersion and Y**"}, {"measurement": "bacterial morphology in established P. aeruginosa biofilm (CLSM)", "setting": "[1]", "value": "altered the morphology"}]}
{"smiles": "O=C(O)c1cn(C2CC2)c2c(F)c(-c3ccncc3)c(F)cc2c1=O", "note": "[Compound 11, 7-(4-pyridyl)-1-cyclopropyl-6,8-difluoro-4-oxoquinoline-3-carboxylic acid]", "values": [{"measurement": "AC50", "setting": "A. baumannii", "value": 0.66, "unit": "µM"}, {"measurement": "AC50", "setting": "A. baumannii biofilm", "value": 0.61, "unit": "µM"}, {"measurement": "biofilm architecture / thickness of established P. aeruginosa biofilm (CLSM)", "setting": "[1]; 300 μM", "value": "thinner biofilm architecture"}, {"measurement": "Effect of compound on the pre-existing biofilm: Dispersion", "setting": "[1]; CLSM, 300 μM compound, 24 hr", "value": "caused dispersion and Y**"}, {"measurement": "bacterial morphology in established P. aeruginosa biofilm (CLSM)", "setting": "[1]", "value": "altered the morphology"}]}
